Results taken from DBAASP.
Converted amounts (≈) assume the structure as drawn. “And” between values parts separate entries of the source, which are not always exact repeats. Equal values may be shown once.

What was measured:
Test in all cases: ≥ marks a high value that may be exact or a test limit, other limits are often not marked, values filed in µg/mL are converted to µM
Aureobasidium pullulans = test system: Aureobasidium pullulans
Bacillus megaterium = test system: Bacillus megaterium
[1] = test system: Bacillus subtilis ATCC 23857
[2] = test system: Candida albicans ATCC 10231
[3] = test system: Corynebacterium glutamicum ATCC 13032
[4] = test system: Escherichia coli ATCC 25922
Micrococcus luteus = test system: Micrococcus luteus
[5] = test system: Pseudomonas aeruginosa ATCC 27853
[6] = test system: Staphylococcus aureus ATCC 9144
[7] = test system: Acinetobacter baumannii LMG 01041
[8] = test system: Escherichia coli LMG 15862
[9] = test system: Klebsiella aerogenes LMG 02094
[10] = test system: Klebsiella pneumoniae LMG 20218
[11] = test system: Pseudomonas aeruginosa LMG 6395
[12] = test system: Burkholderia cepacia ATCC 25416
Escherichia coli UB1005 = test system: Escherichia coli UB1005
[13] = test system: Pseudomonas aeruginosa H374
[14] = test system: Pseudomonas aeruginosa H547
[15] = test system: Pseudomonas aeruginosa H744
[16] = test system: Pseudomonas aeruginosa K799
[17] = test system: Pseudomonas aeruginosa Z61
[18] = test system: Salmonella enterica subsp. enterica serovar Typhimurium ATCC 14028s
[19] = test system: Candida albicans KCTC 7270
[20] = test system: Candida krusei CCARM 14017
[21] = test system: Candida parapsilosis CCARM 14016
[22] = test system: Candida tropicalis KCTC 7221
[23] = test system: Fusarium oxysporum KCTC 16909
[24] = test system: Fusarium verticillioides KCTC 6149
[25] = test system: Aeromonas salmonicida 97-4
[26] = test system: Aeromonas salmonicida 99-1
Candida albicans C627 = test system: Candida albicans C627
[27] = test system: Escherichia coli CGSC 4908
Escherichia coli DC2 = test system: Escherichia coli DC2
[28] = test system: Salmonella enterica serovar typhimurium MS7953s
[29] = test system: Staphylococcus aureus C623
[30] = test system: Staphylococcus epidermidis C621
[31] = test system: Bacillus subtilis ATCC 6051
[32] = test system: Escherichia coli NEB5alpha

C[C@H](NC(=O)[C@H](CCCCN)NC(=O)[C@H](Cc1c[nH]c2ccccc12)NC(=O)[C@H](Cc1c[nH]c2ccccc12)NC(=O)CNC(=O)[C@H](Cc1c[nH]c2ccccc12)NC(=O)[C@H](CCCCN)NC(=O)[C@H](CCCCN)NC(=O)CN)C(=O)N[C@@H](CCCCN)C(N)=O [GKKWGWWKAK]
MIC (Aureobasidium pullulans): ≥ 49 µM | MIC (Bacillus megaterium): 0.785 µM (≈ 0.999 µg/mL) | MIC [1]: 3.06 µM (≈ 3.9 µg/mL) | MIC [2]: 49 µM (≈ 62.5 µg/mL) | MIC [3]: 3.06 µM (≈ 3.9 µg/mL) | MIC [4]: 49 µM (≈ 62.5 µg/mL) | MIC (Micrococcus luteus): ≥ 49 µM | MIC [5]: > 196 µM | MIC [6]: ≥ 196 µM

CC[C@H](C)[C@H](NC(=O)[C@H](CCCN=C(N)N)NC(=O)[C@H](CCC(N)=O)NC(=O)[C@@H](NC(=O)[C@@H](NC(=O)[C@@H](N)CCCN=C(N)N)[C@@H](C)CC)C(C)C)C(=O)N[C@@H](CCCCN)C(=O)N[C@@H](CCCCN)C(=O)N[C@@H](Cc1c[nH]c2ccccc12)C(=O)N[C@@H](CC(C)C)C(N)=O [RIVQRIKKWL]
MIC [7]: ≥ 128 µM | MIC [8]: ≥ 32 µM | MIC [9]: ≥ 256 µM | MIC [10]: ≥ 64 µM | MIC [11]: 16 µM (≈ 21.4 µg/mL)

CC[C@H](C)[C@H](NC(=O)[C@H](CC(C)C)NC(=O)[C@H](C)NC(=O)[C@@H]1CCCN1C(=O)[C@H](CC(C)C)NC(=O)CNC(=O)[C@@H](NC(=O)[C@@H](NC(=O)[C@H](CC(C)C)NC(=O)[C@@H](NC(=O)[C@H](CCCCN)NC(=O)[C@H](CCCCN)NC(=O)[C@H](C)NC(=O)[C@H](C)NC(=O)[C@H](CO)NC(=O)[C@@H](NC(=O)[C@H](CC(C)C)NC(=O)[C@H](CCCCN)NC(=O)[C@H](CCCCN)NC(=O)[C@@H](NC(=O)[C@H](Cc1ccccc1)NC(=O)[C@H](CO)NC(=O)[C@H](CCCCN)NC(=O)[C@H](Cc1c[nH]c2ccccc12)NC(=O)[C@@H](N)CCCCN)[C@@H](C)CC)[C@@H](C)O)C(C)C)[C@@H](C)O)[C@@H](C)O)C(=O)N[C@@H](CO)C(=O)O [KWKSFIKKLTSAAKKVLTTGLPALIS]
MIC [12]: 22.6 µM (≈ 64 µg/mL) | MIC (Escherichia coli UB1005): 0.707 µM (≈ 2 µg/mL) | MIC [5]: 4 µM (≈ 11.3 µg/mL) | MIC [13]: 1.41 µM (≈ 4 µg/mL) | MIC [14]: 2.83 µM (≈ 8 µg/mL) | MIC [15]: 1.41 µM (≈ 4 µg/mL) | MIC [16]: 1.77 µM (≈ 5 µg/mL) | MIC [17]: 1.06 µM (≈ 3 µg/mL) | MIC [18]: 1.41 µM (≈ 4 µg/mL)

CC[C@H](C)[C@H](NC(=O)[C@H](C)NC(=O)[C@H](CCC(=O)O)NC(=O)[C@H](Cc1cnc[nH]1)NC(=O)[C@H](CCCCN)NC(=O)CNC(=O)[C@H](CCC(N)=O)NC(=O)[C@H](CCCCN)NC(=O)[C@@H](NC(=O)[C@H](CCCCN)NC(=O)[C@H](CCCCN)NC(=O)[C@H](CC(C)C)NC(=O)[C@H](C)NC(=O)[C@H](CC(N)=O)NC(=O)[C@H](CC(C)C)NC(=O)CN)C(C)C)C(=O)N[C@@H](CCCCN)C(=O)N[C@@H](CC(C)C)C(=O)N[C@H](C(=O)N[C@@H](CC(N)=O)C(=O)N[C@@H](CC(N)=O)C(=O)N[C@@H](Cc1cnc[nH]1)C(=O)N[C@H](C(=O)N[C@@H](CCC(N)=O)C(N)=O)C(C)C)[C@@H](C)CC [GLNALKKVKQGKHEAIKLINNHVQ]
MIC [19]: ≥ 64 µM | MIC [20]: ≥ 48 µM and 16 µM | MIC [21]: ≥ 64 µM | MIC [22]: 8 µM and 16 µM | MIC [23]: 6 µM and 16 µM | MIC [24]: ≥ 64 µM

CC[C@H](C)[C@H](NC(=O)[C@H](C)NC(=O)CNC(=O)[C@H](CCCCN)NC(=O)[C@@H](NC(=O)[C@H](CC(C)C)NC(=O)[C@H](C)NC(=O)CNC(=O)[C@H](CC(C)C)NC(=O)[C@@H](N)Cc1ccccc1)[C@@H](C)CC)C(=O)N[C@@H](Cc1cnc[nH]1)C(=O)NCC(=O)NCC(=O)N[C@@H](CCCNC(=N)N)C(=O)N[C@@H](Cc1ccccc1)C(=O)N[C@H](C(=O)N[C@@H](Cc1cnc[nH]1)C(=O)NCC(=O)N[C@@H](CCSC)C(=O)N[C@H](C(=O)N[C@@H](CCC(N)=O)C(=O)N[C@@H](CC(N)=O)C(=O)N[C@@H](Cc1cnc[nH]1)C(=O)N[C@@H](Cc1cnc[nH]1)C(C)=O)[C@@H](C)CC)[C@@H](C)CC [FLGALIKGAIHGGRFIHGMIQNHH]
MIC [25]: 24.4 µM (≈ 64 µg/mL) | MIC [26]: 24.4 µM (≈ 64 µg/mL) | MIC (Candida albicans C627): 24.4 µM (≈ 64 µg/mL) | MIC [27]: 24.4 µM (≈ 64 µg/mL) | MIC (Escherichia coli DC2): 24.4 µM (≈ 64 µg/mL) | MIC (Escherichia coli UB1005): 24.4 µM (≈ 64 µg/mL) | MIC [16]: 24.4 µM (≈ 64 µg/mL) | MIC [17]: 12.2 µM (≈ 32 µg/mL) | MIC [28]: 24.4 µM (≈ 64 µg/mL) | MIC [18]: 24.4 µM (≈ 64 µg/mL) | MIC [29]: 12.2 µM (≈ 32 µg/mL) | MIC [30]: 12.2 µM (≈ 32 µg/mL)

CC[C@H](C)[C@H](NC(=O)[C@H](C)NC(=O)CNC(=O)[C@H](CCCCN)NC(=O)[C@H](CCC(=O)O)NC(=O)[C@H](CCC(=O)O)NC(=O)[C@H](CC(=O)O)NC(=O)[C@H](CCC(=O)O)NC(=O)[C@H](CC(=O)O)NC(=O)[C@H](CCCN=C(N)N)NC(=O)CNC(=O)[C@H](CCC(N)=O)NC(=O)[C@H](CC(C)C)NC(=O)[C@H](CCCCN)NC(=O)[C@H](CC(=O)O)NC(=O)[C@@H](NC(=O)[C@@H](NC(=O)[C@H](Cc1cnc[nH]1)NC(=O)[C@H](CCCN=C(N)N)NC(=O)[C@H](CC(N)=O)NC(=O)[C@@H](N)C(C)C)[C@@H](C)CC)C(C)C)C(=O)N[C@H](C(=O)N[C@@H](CCCCN)C(=O)N[C@H](C(=O)N[C@@H](CCCCN)C(=O)NCC(=O)NCC(=O)N[C@@H](CC(C)C)C(=O)O)C(C)C)C(C)C [VNRHIVDKLQGRDEDEEKGAIVKVKGGL]
MIC [31]: ≥ 500 µM | MIC [32]: ≥ 500 µM
